Measured values published in patent publication US8163931B2, “Treatment of CRTH2-mediated diseases and conditions” (Oxagen Limited, priority 2003, dated 2012).

What was measured:
CRTH2 [1] = molecular target: T1, CRTH2 (Homo sapiens, UniProt Q9Y5Y4); assay: Calcium mobilisation assay in CHO/CRTH2 cells (PGD2-induced calcium flux); type: cell-based; conditions: for IC50: read-out: IC50, inhibition of PGD2-induced calcium flux
T1 construct: expressed in transfected cells; host or cells: Chinese Hamster Ovary (CHO) cells, G418-selected (CHO/CRTH2)
T1 sequence (Q9Y5Y4 1-395): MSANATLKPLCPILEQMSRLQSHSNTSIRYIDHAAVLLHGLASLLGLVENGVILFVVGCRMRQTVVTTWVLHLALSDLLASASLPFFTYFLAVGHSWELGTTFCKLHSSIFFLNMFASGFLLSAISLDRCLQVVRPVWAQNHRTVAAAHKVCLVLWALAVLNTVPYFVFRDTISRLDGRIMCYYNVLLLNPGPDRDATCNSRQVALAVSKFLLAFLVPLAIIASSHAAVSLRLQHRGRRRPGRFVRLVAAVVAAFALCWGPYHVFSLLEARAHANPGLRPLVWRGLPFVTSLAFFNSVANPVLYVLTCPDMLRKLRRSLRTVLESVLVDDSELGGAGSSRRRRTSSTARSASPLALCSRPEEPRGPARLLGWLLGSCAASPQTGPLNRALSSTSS
Method: (§1) Chinese Hamster Ovary cells were transfected with CRTH2 or DP receptors (CHO/CRTH2 and CHO/DP) and were maintained in culture in a humidified atmosphere at 37° C. (5% CO2) in Minimum Essential Medium (MEM) supplemented with 10% foetal bovine serum, 2 mM glutamine, and 1 mg ml^−1 active G418. The cells were passaged every 2-3 days. For radioligand binding assay, cells were prepared in triple-layer flasks or in 175 cm^2 square flasks (for membrane preparation). For calcium mobilisation assay, cells were grown in a 96 well plate 24 h prior to the assay at a density of 80,000 cells per well.
Cells were seeded onto poly-D-lysine coated 96-well plates at a density of 80,000 cells per well and incubated at 37° C. overnight to allow the cells to adhere. Cells were washed twice with HBSS and incubated for 1 h at 37° C. in 100 μl HBSS and 100 μl calcium-3-dye (Molecular Devices), supplemented with 4 mM probenecid. Changes in fluorescence were monitored over a 50 s time course with agonist addition at 17 s using a Flexstation (Molecular Devices).

CRTH2 [2] = molecular target: T1, CRTH2; assay: [3H]PGD2 radioligand binding on CHO/CRTH2 cell membranes; conditions: competition versus [3H]PGD2, CHO/CRTH2 membranes
Method: as §1
(§2) Membranes were prepared either from CHO/CRTH2 and CHO/DP cells, or from platelets (as a source of TP receptors). CHO cells grown to confluency were washed with PBS and detached using a Versene solution (15 ml per flask). When the cells were grown in 175 cm^2 square flask, they were collected by scrapping in PBS. The cell suspensions were centrifuged (1,700 rpm, 10 min, 4° C.) and resuspended in 15 ml of buffer (1×HBSS, supplemented with 10 mM HEPES, pH 7.3). Cell suspensions were then homogenised using an Ultra Turrax at setting 4-6 for 20 s. The homogenate was centrifuged at 1,700 rpm for 10 min and the supernatant was collected and centrifuged at 20,000 rpm for 1 h at 4° C. The resulting pellet was resuspended in buffer and stored at −80° C. in aliquots of 200-500 μl. The protein concentration was determined by the method of Bradford (1976), using bovine serum albumin as standard. The platelets were washed by centrifugation at 600×g for 10 min and resuspended in ice-cold assay buffer (10 mM Tris-HCl, pH 7.4, 5 mM Glucose, 120 mM NaCl, 10 μM indomethacin) and directly centrifuged at 20,000 rpm for 30 min at 4° C. The resulting pellet was treated as described above.
(§3) [^3H]PGD2 (160 Ci/mmol) binding experiments were performed on membranes prepared as described above. Assays were performed in a final volume of 100 μl of buffer (1×HBSS/HEPES 10 mM, pH 7.3). Cell membranes (15 μg). Cell membranes […] were preincubated at room temperature with varying concentration of competing ligand for 15 min. [^3H]PGD2 (mol, final concentration) was then added and the incubation continued for a further one hour at room temperature. The reaction was terminated by the addition of 200 μl ice-cold assay buffer to each well, followed by rapid filtration through Whatman GF/B glass fibre filters using a Unifilter Cell harvester (PerkinElmer Life Sciences) and six washes of 300 μl of ice-cold buffer. The Unifilter plates were dried at room temperature for at least 1 h and the radioactivity retained on the filters was determined on a Beta Trilux counter (PerkinElmer Life Sciences), following addition of 40 μl of Optiphase Hi-Safe 3 (Wallac) liquid scintillation. Non specific binding was defined in the presence of 10 μM unlabelled PGD2. Assays were performed in duplicate.

DP receptor = molecular target: T2, DP receptor (Homo sapiens, UniProt Q13258); assay: [3H]PGD2 radioligand binding on CHO/DP cell membranes; conditions: competition versus [3H]PGD2, CHO/DP membranes
T2 construct: expressed in transfected cells; host or cells: Chinese Hamster Ovary (CHO) cells, G418-selected (CHO/DP)
T2 sequence (Q13258 1-359): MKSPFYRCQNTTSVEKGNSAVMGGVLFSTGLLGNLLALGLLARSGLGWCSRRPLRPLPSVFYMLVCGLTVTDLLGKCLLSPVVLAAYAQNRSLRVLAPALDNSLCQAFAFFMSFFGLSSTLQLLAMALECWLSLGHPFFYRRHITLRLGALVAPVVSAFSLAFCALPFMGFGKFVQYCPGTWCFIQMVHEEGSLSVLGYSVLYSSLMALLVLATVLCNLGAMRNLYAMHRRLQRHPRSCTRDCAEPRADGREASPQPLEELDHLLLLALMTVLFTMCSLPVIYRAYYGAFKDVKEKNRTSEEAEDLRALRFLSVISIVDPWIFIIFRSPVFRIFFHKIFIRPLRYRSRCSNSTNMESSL
Method: as §1, §2, §3

IC50 (CRTH2 [1]) | Ki (CRTH2 [2]) | Ki (DP receptor) | SMILES | EC50 (CRTH2 [1]; agonist, n=3, read-out: EC50, increase in intracellular Ca2+ mobilisation)
34 ± 7 nM | – | – | Cc1c(C(C)c2nc3ccccc3s2)c2cc(F)ccc2n1CC(=O)O (racemic) [Compound 19, (±)-3-(1-Benzothiazol-2-yl-ethyl)-5-fluoro-2-methyl-indol-1-yl]-acetic acid] | –
55 ± 18 nM | 5 ± 4 nM | 30400 ± 9810 nM | Cc1c(C(C)c2ccc(S(C)(=O)=O)cc2)c2cc(F)ccc2n1CC(=O)O (stereo not shown) [Compound 4, {5-Fluoro-3-[1-(4-methanesulfonyl-phenyl)-ethyl]-2-methyl-indol-1-yl}-acetic acid] | –
– | – | 17900 ± 7290 nM | Cc1c(Cc2ccc3ccccc3n2)c2cc(F)ccc2n1CC(=O)O [Compound 6, (5-Fluoro-2-methyl-3-quinolin-2-ylmethyl-indol-1-yl)-acetic acid] | –
38 ± 16 nM | – | – | Cc1c(Cc2ccc3ccccc3c2)c2cc(F)ccc2n1CC(=O)O [Compound 7, (5-Fluoro-2-methyl-3-naphthalen-2-ylmethyl-indol-1-yl)-acetic acid] | –
11 ± 6 nM | 6 ± 4 nM | 7710 ± 1780 nM | Cc1c(Cc2ccc3cccc(O)c3n2)c2cc(F)ccc2n1CC(=O)O [Compound 8, [5-Fluoro-3-(8-hydroxy-quinolin-2-ylmethyl)-2-methyl-indol-1-yl]-acetic acid] | –
47 ± 8 nM | – | – | COc1ccc(Cc2c(C)n(CC(=O)O)c3ccc(F)cc23)cc1 [Compound 10, [5-Fluoro-3-(4-methoxy-benzyl)-2-methyl-indol-1-yl]-acetic acid] | –
108 ± 29 nM | 11 ± 2 nM | 12200 ± 2250 nM | Cc1c(Cc2ccc(Cl)cc2)c2cc(F)ccc2n1CC(=O)O [Compound 12, [3-(4-Chloro-benzyl)-5-fluoro-2-methyl-indol-1-yl]-acetic acid] | –
– | 6 ± 1 nM | – | Cc1c(Cc2nc3ccccc3s2)c2cc(F)ccc2n1CC(=O)O [Compound 13, (3-Benzothiazol-2-ylmethyl-5-fluoro-2-methyl-indol-1-yl)-acetic acid] | –
64 ± 5 nM | – | – | Cc1c(Cc2ccc(S(C)(=O)=O)cc2)c2cc(F)ccc2n1CC(=O)O [Compound 17, [5-Fluoro-3-(4-methanesulfonyl-benzyl)-2-methyl-indol-1-yl]-acetic acid] | –
10 ± 5 nM | 1.3 ± 0.6 nM | 7740 ± 1440 nM | Cc1c(Cc2ccc3cc(F)ccc3n2)c2cc(F)ccc2n1CC(=O)O [Compound 18, [5-Fluoro-3-(6-fluoro-quinolin-2-ylmethyl)-2-methyl-indol-1-yl]-acetic acid] | –
885 ± 96 nM | 886 ± 248 nM | 3960 nM | O=C(O)Cn1cc(Cc2nc3c(F)c(F)cc(F)c3s2)c2ccccc21 [Compound 20, [3-(4,5,7-Trifluoro-benzothiazol-2-ylmethyl)-indol-1-yl]-acetic acid, reference compound] | –
– | – | – | CCCCC[C@H](O)/C=C/[C@H]1C(=O)C[C@H](O)[C@@H]1C/C=C\CCCC(=O)O [PGD2, prostaglandin D2, reference compound] | 2.4 ± 0.5 nM
